According to PubChem BioAssay (NCI):
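A five-concentration, 48-hour dose response in 96-well plates underlies each endpoint, interpolated linearly between surrounding concentrations. GI50: concentration for 50% inhibition of growth. TGI marks complete inhibition of growth.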

What was measured:
Experiment in all cases: NCI tumour cell line growth inhibition, 48 h
786-0 renal = tested on: 786-0 renal
A498 renal = tested on: A498 renal
A549 NSCLC = tested on: A549 NSCLC
ACHN renal = tested on: ACHN renal
BT-549 breast = tested on: BT-549 breast
CAKI-1 renal = tested on: CAKI-1 renal
CCRF-CEM leukemia = tested on: CCRF-CEM leukemia
COLO 205 colon = tested on: COLO 205 colon
DU-145 prostate = tested on: DU-145 prostate
EKVX NSCLC = tested on: EKVX NSCLC
HCC-2998 colon = tested on: HCC-2998 colon
HCT-116 colon = tested on: HCT-116 colon
HCT-15 colon = tested on: HCT-15 colon
HL-60(TB) leukemia = tested on: HL-60(TB) leukemia
HOP-62 NSCLC = tested on: HOP-62 NSCLC
HOP-92 NSCLC = tested on: HOP-92 NSCLC
HS 578T breast = tested on: HS 578T breast
HT29 colon = tested on: HT29 colon
K-562 leukemia = tested on: K-562 leukemia
KM12 colon = tested on: KM12 colon
LOX IMVI melanoma = tested on: LOX IMVI melanoma
M14 melanoma = tested on: M14 melanoma
MALME-3M melanoma = tested on: MALME-3M melanoma
MCF7 breast = tested on: MCF7 breast
MDA-MB-435 = tested on: MDA-MB-435
MOLT-4 leukemia = tested on: MOLT-4 leukemia
NCI-H226 lung = tested on: NCI-H226 lung
NCI-H23 lung = tested on: NCI-H23 lung
NCI-H460 lung = tested on: NCI-H460 lung
NCI-H522 lung = tested on: NCI-H522 lung
NCI/ADR-RES ovarian = tested on: NCI/ADR-RES ovarian
OVCAR-3 ovarian = tested on: OVCAR-3 ovarian
OVCAR-4 ovarian = tested on: OVCAR-4 ovarian
OVCAR-5 ovarian = tested on: OVCAR-5 ovarian
OVCAR-8 ovarian = tested on: OVCAR-8 ovarian
PC-3 prostate = tested on: PC-3 prostate
RXF 393 renal = tested on: RXF 393 renal
SF-268 CNS = tested on: SF-268 CNS
SF-295 CNS = tested on: SF-295 CNS
SF-539 CNS = tested on: SF-539 CNS
SK-MEL-2 melanoma = tested on: SK-MEL-2 melanoma
SK-MEL-28 melanoma = tested on: SK-MEL-28 melanoma
SK-MEL-5 melanoma = tested on: SK-MEL-5 melanoma
SK-OV-3 ovarian = tested on: SK-OV-3 ovarian
SN12C renal = tested on: SN12C renal
SNB-19 CNS = tested on: SNB-19 CNS
SNB-75 CNS = tested on: SNB-75 CNS
SR leukemia = tested on: SR leukemia
SW-620 colon = tested on: SW-620 colon
T-47D breast = tested on: T-47D breast
TK-10 renal = tested on: TK-10 renal
U251 CNS = tested on: U251 CNS
UACC-257 melanoma = tested on: UACC-257 melanoma
UACC-62 melanoma = tested on: UACC-62 melanoma
UO-31 renal = tested on: UO-31 renal

`COc1ncc(-c2ccc3nccc(C#CCCCCC(=O)O)c3c2)cc1NS(=O)(=O)c1ccc(F)cc1F` showed a GI50 (786-0 renal) of 1040 nM, a TGI (786-0 renal) of 17300 nM and a GI50 (A498 renal) of 40.8 nM. The TGI (A498 renal) was 799 nM, the GI50 (A549 NSCLC) was 557 nM and the TGI (A549 NSCLC) was > 100000 nM. For the same compound, the GI50 (ACHN renal) was 2730 nM, the TGI (ACHN renal) was > 100000 nM and the GI50 (BT-549 breast) was 449 nM. The TGI (BT-549 breast) was 8920 nM, the GI50 (CAKI-1 renal) was 819 nM and the TGI (CAKI-1 renal) was > 100000 nM. The GI50 (CCRF-CEM leukemia) was 1210 nM, the TGI (CCRF-CEM leukemia) was > 100000 nM and the GI50 (COLO 205 colon) was 108 nM. For the same compound, the TGI (COLO 205 colon) was 30200 nM, the GI50 (DU-145 prostate) was 2090 nM and the TGI (DU-145 prostate) was > 100000 nM. It also gave a GI50 (EKVX NSCLC) of 1110 nM, a TGI (EKVX NSCLC) of 45100 nM and a GI50 (HCC-2998 colon) of 626 nM. For the same compound, the TGI (HCC-2998 colon) was > 100000 nM, the GI50 (HCT-116 colon) was 6850 nM and the TGI (HCT-116 colon) was > 100000 nM. For the same compound, the GI50 (HCT-15 colon) was 362 nM, the TGI (HCT-15 colon) was > 100000 nM and the GI50 (HL-60(TB) leukemia) was 283 nM. The TGI (HL-60(TB) leukemia) was 59100 nM, the GI50 (HOP-62 NSCLC) was 1160 nM and the TGI (HOP-62 NSCLC) was > 100000 nM. The GI50 (HOP-92 NSCLC) was 15.8 nM, the TGI (HOP-92 NSCLC) was 620 nM and the GI50 (HS 578T breast) was 65.7 nM. For the same compound, the TGI (HS 578T breast) was 2340 nM, the GI50 (HT29 colon) was 82.6 nM and the TGI (HT29 colon) was > 100000 nM. For the same compound, the GI50 (K-562 leukemia) was 17200 nM, the TGI (K-562 leukemia) was > 100000 nM and the GI50 (KM12 colon) was 2880 nM. The TGI (KM12 colon) was > 100000 nM, the GI50 (LOX IMVI melanoma) was 941 nM and the TGI (LOX IMVI melanoma) was 18900 nM. The GI50 (M14 melanoma) was 1610 nM, the TGI (M14 melanoma) was > 100000 nM and the GI50 (MALME-3M melanoma) was 76.1 nM. The TGI (MALME-3M melanoma) was 916 nM, the GI50 (MCF7 breast) was 15 nM and the TGI (MCF7 breast) was > 100000 nM. The GI50 (MDA-MB-435) was 845 nM, the TGI (MDA-MB-435) was > 100000 nM and the GI50 (MOLT-4 leukemia) was 520 nM. The TGI (MOLT-4 leukemia) was 33500 nM, the GI50 (NCI-H226 lung) was 4730 nM and the TGI (NCI-H226 lung) was > 100000 nM. The GI50 (NCI-H23 lung) was 2390 nM, the TGI (NCI-H23 lung) was > 100000 nM and the GI50 (NCI-H460 lung) was 324 nM. The TGI (NCI-H460 lung) was > 100000 nM, the GI50 (NCI-H522 lung) was 1250 nM and the TGI (NCI-H522 lung) was > 100000 nM. The GI50 (NCI/ADR-RES ovarian) was 3970 nM, the TGI (NCI/ADR-RES ovarian) was > 100000 nM and the GI50 (OVCAR-3 ovarian) was 733 nM. It also gave a TGI (OVCAR-3 ovarian) of 23300 nM, a GI50 (OVCAR-4 ovarian) of 3620 nM and a TGI (OVCAR-4 ovarian) of 83800 nM. The GI50 (OVCAR-5 ovarian) was 122 nM, the TGI (OVCAR-5 ovarian) was > 100000 nM and the GI50 (OVCAR-8 ovarian) was 2360 nM. The TGI (OVCAR-8 ovarian) was > 100000 nM, the GI50 (PC-3 prostate) was 548 nM and the TGI (PC-3 prostate) was > 100000 nM. The GI50 (RXF 393 renal) was 1120 nM, the TGI (RXF 393 renal) was 6020 nM and the GI50 (SF-268 CNS) was 1170 nM. For the same compound, the TGI (SF-268 CNS) was > 100000 nM, the GI50 (SF-295 CNS) was 735 nM and the TGI (SF-295 CNS) was 6450 nM. It also gave a GI50 (SF-539 CNS) of 492 nM, a TGI (SF-539 CNS) of 5870 nM and a GI50 (SK-MEL-2 melanoma) of 1600 nM. For the same compound, the TGI (SK-MEL-2 melanoma) was 15200 nM, the GI50 (SK-MEL-28 melanoma) was 539 nM and the TGI (SK-MEL-28 melanoma) was > 100000 nM. It also gave a GI50 (SK-MEL-5 melanoma) of 2840 nM, a TGI (SK-MEL-5 melanoma) of 15000 nM and a GI50 (SK-OV-3 ovarian) of 43.2 nM. The TGI (SK-OV-3 ovarian) was 657 nM, the GI50 (SN12C renal) was 2550 nM and the TGI (SN12C renal) was > 100000 nM. For the same compound, the GI50 (SNB-19 CNS) was 2050 nM, the TGI (SNB-19 CNS) was 84900 nM and the GI50 (SNB-75 CNS) was 19.9 nM. It also gave a TGI (SNB-75 CNS) of 980 nM, a GI50 (SR leukemia) of 1670 nM and a TGI (SR leukemia) of 44100 nM. For the same compound, the GI50 (SW-620 colon) was 1910 nM, the TGI (SW-620 colon) was > 100000 nM and the TGI (T-47D breast) was 84.9 nM. It also gave a GI50 (TK-10 renal) of 84.6 nM, a TGI (TK-10 renal) of 9670 nM and a GI50 (U251 CNS) of 562 nM. The TGI (U251 CNS) was 27800 nM, the GI50 (UACC-257 melanoma) was 355 nM and the TGI (UACC-257 melanoma) was 5920 nM. The GI50 (UACC-62 melanoma) was 274 nM, the TGI (UACC-62 melanoma) was 3020 nM and the GI50 (UO-31 renal) was 207 nM. For the same compound, the TGI (UO-31 renal) was 14100 nM.
